Starred links: 1 amine or outer side, 2 acyl side, 3 side chain; linkers in the order of their positions; H or OH if unused. Positions of bridges follow the written chain, without caps; N, C: chain ends. Non-standard residues stand in square brackets, D forms with d. Residues, ends and D or L forms follow the SMILES beside them. Phe(4-CONH2) = NC(=O)c1ccc(C[C@H](N)C(=O)O)cc1; βAsp = O=C(O)[C@H](CC(=O)[*:2])N[*:1]; Ahp(2) = CCCCC[C@H](N)C(=O)O; NMeNle = CCCC[C@H](NC)C(=O)O; Tle = CC(C)(C)[C@H](N)C(=O)O; NHexGly = CCCCCCNCC(=O)O; Orn = NCCC[C@H](N)C(=O)O; Aun = NCCCCCCCCCCC(=O)O; Dab = NCC[C@H](N)C(=O)O; AEEA = NCCOCCOCC(=O)O
Target: T1, mouse VISTA (mVISTA) (Mus musculus, UniProt Q9D659)
T1 construct: expressed in transfected cells; host or cells: Human embryonic kidney 293T cells
T1 sequence (Q9D659 33-308): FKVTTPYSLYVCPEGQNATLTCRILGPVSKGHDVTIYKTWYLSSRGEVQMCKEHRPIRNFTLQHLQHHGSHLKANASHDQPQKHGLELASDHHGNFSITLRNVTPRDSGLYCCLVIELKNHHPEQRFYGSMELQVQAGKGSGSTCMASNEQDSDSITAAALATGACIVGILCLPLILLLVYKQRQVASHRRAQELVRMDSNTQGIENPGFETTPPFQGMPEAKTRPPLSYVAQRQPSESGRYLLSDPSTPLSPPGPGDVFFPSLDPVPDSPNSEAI
Assay: Cell-Based Binding High-Content Assay For mVISTA (HC CBA mVISTA)
Details: cell-based binding high-content assay, mVISTA; read-out: HC CBA miPrISTA IC50
In short: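 Read-out: Alexa 647–streptavidin signal imaged on fixed, Hoechst-stained mVISTA-293T cells, with IC50 taken from a four-parameter logistic curve. Compounds competed with 2 nM biotinylated peptide for 30 min at room temperature, tested under both no-wash and wash (1 h compound, media exchange, 1 h) formats.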

| IC50 | Compound |
| --- | --- |
| 41.7 nM | CCCCCCN1CC(=O)N[C@@H](Cc2ccc(O)cc2)C(=O)N[C@@H](CC(C)C)C(=O)N[C@@H](CC(N)=O)C(=O)N[C@@H](CCCNC(=N)N)C(=O)N(C)[C@@H](CCCC)C(=O)N[C@@H](CCCCC)C(=O)N2CCC[C@H]2C(=O)N[C@@H](C(C)(C)C)C(=O)N[C@@H](CC(=O)O)C(=O)N[C@H](C(=O)N[C@@H](CCN)C(=O)NCCOCCOCC(=O)N[C@@H](CC(=O)O)C(=O)NCCOCCOCC(=O)NCCCCCCCCCCC(=O)O)CSCC(=O)N[C@@H](Cc2ccccc2)C(=O)N[C@@H](Cc2ccc(O)cc2)C(=O)N[C@@H](CC(=O)O)C1=O [compound 2085] ({CH2CO}-FYD[NHexGly]YLNR[NMeNle][Ahp(2)]P[Tle]DC[Dab][AEEA]D[AEEA][Aun]-OH; thioether N-14) |
| 49.9 nM | CCCCCCN1CC(=O)N[C@@H](Cc2ccc(O)cc2)C(=O)N[C@@H](CC(C)C)C(=O)N[C@@H](CC(N)=O)C(=O)N[C@@H](CCCNC(=N)N)C(=O)N(C)[C@@H](CCCC)C(=O)N[C@@H](CCCCC)C(=O)N2CCC[C@H]2C(=O)N[C@@H](C(C)(C)C)C(=O)N[C@@H](CO)C(=O)N[C@H](C(=O)N[C@@H](CCN)C(=O)NCCOCCOCC(=O)N[C@@H](CC(=O)O)C(=O)NCCOCCOCC(=O)NCCCCCCCCCCC(=O)O)CSCC(=O)N[C@@H](Cc2ccccc2)C(=O)N[C@@H](Cc2ccc(O)cc2)C(=O)N[C@@H](CC(=O)O)C1=O [compound 2086] ({CH2CO}-FYD[NHexGly]YLNR[NMeNle][Ahp(2)]P[Tle]SC[Dab][AEEA]D[AEEA][Aun]-OH; thioether N-14) |
| 28.8 nM | CCCCCCN1CC(=O)N[C@@H](Cc2ccc(O)cc2)C(=O)N[C@@H](CC(C)C)C(=O)N[C@@H](CC(N)=O)C(=O)N[C@@H](CCCNC(=N)N)C(=O)N(C)[C@@H](CCCC)C(=O)N[C@@H](CCCCC)C(=O)N2CCC[C@H]2C(=O)N[C@@H](C(C)(C)C)C(=O)N[C@@H](CO)C(=O)N[C@H](C(=O)N[C@@H](CC(=O)NCCOCCOCC(=O)N[C@@H](CC(=O)O)C(=O)NCCOCCOCC(=O)NCCCCCCCCCCC(=O)O)C(=O)O)CSCC(=O)N[C@@H](Cc2ccc(C(N)=O)cc2)C(=O)N[C@@H](Cc2ccc(O)cc2)C(=O)N[C@@H](CC(=O)O)C1=O [compound 2087] ({CH2CO}-[Phe(4-CONH2)]YD[NHexGly]YLNR[NMeNle][Ahp(2)]P[Tle]SC[βAsp][AEEA]D[AEEA][Aun]-OH; thioether N-14) |
| 16.9 nM | CCCCCCN1CC(=O)N[C@@H](Cc2ccc(O)cc2)C(=O)N[C@@H](CC(C)C)C(=O)N[C@@H](CC(N)=O)C(=O)N[C@@H](CCCNC(=N)N)C(=O)N(C)[C@@H](CCCC)C(=O)N[C@@H](CCCCC)C(=O)N2CCC[C@H]2C(=O)N[C@@H](C(C)(C)C)C(=O)N[C@@H](CC(=O)O)C(=O)N[C@H](C(=O)N[C@@H](CC(=O)NCCOCCOCC(=O)N[C@@H](CC(=O)O)C(=O)NCCOCCOCC(=O)NCCCCCCCCCCC(=O)O)C(=O)O)CSCC(=O)N[C@@H](Cc2ccc(C(N)=O)cc2)C(=O)N[C@@H](Cc2ccc(O)cc2)C(=O)N[C@@H](CC(=O)O)C1=O [compound 2088] ({CH2CO}-[Phe(4-CONH2)]YD[NHexGly]YLNR[NMeNle][Ahp(2)]P[Tle]DC[βAsp][AEEA]D[AEEA][Aun]-OH; thioether N-14) |
| 34.4 nM | CCCCCCN1CC(=O)N[C@@H](Cc2ccc(O)cc2)C(=O)N[C@@H](CC(C)C)C(=O)N[C@@H](CC(N)=O)C(=O)N[C@@H](CCCNC(=N)N)C(=O)N(C)[C@@H](CCCC)C(=O)N[C@@H](CCCCC)C(=O)N2CCC[C@H]2C(=O)N[C@@H](C(C)(C)C)C(=O)N[C@@H](CO)C(=O)N[C@H](C(=O)N[C@@H](CC(=O)NCCOCCOCC(=O)N[C@@H](CC(=O)O)C(=O)NCCOCCOCC(=O)NCCCCCCCCCCC(=O)O)C(=O)O)CSCC(=O)N[C@@H](Cc2ccc(C(N)=O)cc2)C(=O)N[C@@H](Cc2c[nH]c3ccccc23)C(=O)N[C@@H](CC(=O)O)C1=O [compound 2090] ({CH2CO}-[Phe(4-CONH2)]WD[NHexGly]YLNR[NMeNle][Ahp(2)]P[Tle]SC[βAsp][AEEA]D[AEEA][Aun]-OH; thioether N-14) |
| 14.6 nM | CCCCCCN1CC(=O)N[C@@H](Cc2ccc(O)cc2)C(=O)N[C@@H](CC(C)C)C(=O)N[C@@H](CC(N)=O)C(=O)N[C@@H](CCCNC(=N)N)C(=O)N(C)[C@@H](CCCC)C(=O)N[C@@H](CCCCC)C(=O)N2CCC[C@H]2C(=O)N[C@@H](C(C)(C)C)C(=O)N[C@@H](CC(=O)O)C(=O)N[C@H](C(=O)N[C@@H](CC(=O)NCCOCCOCC(=O)N[C@@H](CC(=O)O)C(=O)NCCOCCOCC(=O)NCCCCCCCCCCC(=O)O)C(=O)O)CSCC(=O)N[C@@H](Cc2ccc(C(N)=O)cc2)C(=O)N[C@@H](Cc2c[nH]c3ccccc23)C(=O)N[C@@H](CC(=O)O)C1=O [compound 2091] ({CH2CO}-[Phe(4-CONH2)]WD[NHexGly]YLNR[NMeNle][Ahp(2)]P[Tle]DC[βAsp][AEEA]D[AEEA][Aun]-OH; thioether N-14) |
| 15.8 nM | CCCCCCN1CC(=O)N[C@@H](Cc2ccc(O)cc2)C(=O)N[C@@H](CC(C)C)C(=O)N[C@@H](CC(N)=O)C(=O)N[C@@H](CCCN)C(=O)N(C)[C@@H](CCCC)C(=O)N[C@@H](CCCCC)C(=O)N2CCC[C@H]2C(=O)N[C@@H](C(C)(C)C)C(=O)N[C@@H](CC(=O)O)C(=O)N[C@H](C(=O)N[C@@H](CC(=O)NCCOCCOCC(=O)N[C@@H](CC(=O)O)C(=O)NCCOCCOCC(=O)NCCCCCCCCCCC(=O)O)C(=O)O)CSCC(=O)N[C@@H](Cc2ccc(C(N)=O)cc2)C(=O)N[C@@H](Cc2ccc(O)cc2)C(=O)N[C@@H](CC(=O)O)C1=O [compound 2092] ({CH2CO}-[Phe(4-CONH2)]YD[NHexGly]YLN[Orn][NMeNle][Ahp(2)]P[Tle]DC[βAsp][AEEA]D[AEEA][Aun]-OH; thioether N-14) |
| 22.1 nM | CCCCCCN1CC(=O)N[C@@H](Cc2ccc(O)cc2)C(=O)N[C@@H](C)C(=O)N[C@@H](CC(N)=O)C(=O)N[C@@H](CCCN)C(=O)N(C)[C@@H](CCCC)C(=O)N[C@@H](CCCCC)C(=O)N2CCC[C@H]2C(=O)N[C@@H](C(C)(C)C)C(=O)N[C@@H](CO)C(=O)N[C@H](C(=O)N[C@@H](CC(=O)NCCOCCOCC(=O)N[C@@H](CC(=O)O)C(=O)NCCOCCOCC(=O)NCCCCCCCCCCC(=O)O)C(=O)O)CSCC(=O)N[C@@H](Cc2ccccc2)C(=O)N[C@@H](Cc2c[nH]c3ccccc23)C(=O)N[C@@H](CC(=O)O)C1=O [compound 2093] ({CH2CO}-FWD[NHexGly]YAN[Orn][NMeNle][Ahp(2)]P[Tle]SC[βAsp][AEEA]D[AEEA][Aun]-OH; thioether N-14) |
| 34.7 nM | CCCCCCN1CC(=O)N[C@@H](Cc2ccc(O)cc2)C(=O)N[C@@H](C)C(=O)N[C@@H](CC(N)=O)C(=O)N[C@@H](CCCNC(=N)N)C(=O)N(C)[C@@H](CCCC)C(=O)N[C@@H](CCCCC)C(=O)N2CCC[C@H]2C(=O)N[C@@H](C(C)(C)C)C(=O)N[C@@H](CC(=O)O)C(=O)N[C@H](C(=O)N[C@@H](CC(=O)NCCOCCOCC(=O)N[C@@H](CC(=O)O)C(=O)NCCOCCOCC(=O)NCCCCCCCCCCC(=O)O)C(=O)O)CSCC(=O)N[C@@H](Cc2ccccc2)C(=O)N[C@@H](Cc2c[nH]c3ccccc23)C(=O)N[C@@H](CC(=O)O)C1=O [compound 2094] ({CH2CO}-FWD[NHexGly]YANR[NMeNle][Ahp(2)]P[Tle]DC[βAsp][AEEA]D[AEEA][Aun]-OH; thioether N-14) |

From patent US20240218022A1, “ANTI-VISTA MACROCYCLIC PEPTIDES AND COMPOSITIONS” (BRISTOL-MYERS SQUIBB COMPANY, priority 2022, published 2024)
